In one experiment the target is T1, Or71a/Orco (Drosophila melanogaster, UniProt Q9VUK5).
T1 construct: his-tag; made in house; host or cells: baculovirus-infected Sf9 cells
T1 sequence (Q9VUK5 1-378): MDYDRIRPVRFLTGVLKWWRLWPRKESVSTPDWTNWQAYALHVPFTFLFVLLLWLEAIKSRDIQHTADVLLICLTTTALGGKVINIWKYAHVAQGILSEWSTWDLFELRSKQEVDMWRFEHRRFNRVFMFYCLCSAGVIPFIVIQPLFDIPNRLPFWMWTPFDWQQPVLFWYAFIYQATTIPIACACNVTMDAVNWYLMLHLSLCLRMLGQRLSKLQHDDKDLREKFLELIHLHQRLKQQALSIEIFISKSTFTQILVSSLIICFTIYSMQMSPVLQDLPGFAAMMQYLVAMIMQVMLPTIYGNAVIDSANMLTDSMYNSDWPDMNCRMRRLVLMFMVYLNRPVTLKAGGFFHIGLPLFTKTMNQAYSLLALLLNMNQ
T1 sequence (Q9VNB5 1-486 partner): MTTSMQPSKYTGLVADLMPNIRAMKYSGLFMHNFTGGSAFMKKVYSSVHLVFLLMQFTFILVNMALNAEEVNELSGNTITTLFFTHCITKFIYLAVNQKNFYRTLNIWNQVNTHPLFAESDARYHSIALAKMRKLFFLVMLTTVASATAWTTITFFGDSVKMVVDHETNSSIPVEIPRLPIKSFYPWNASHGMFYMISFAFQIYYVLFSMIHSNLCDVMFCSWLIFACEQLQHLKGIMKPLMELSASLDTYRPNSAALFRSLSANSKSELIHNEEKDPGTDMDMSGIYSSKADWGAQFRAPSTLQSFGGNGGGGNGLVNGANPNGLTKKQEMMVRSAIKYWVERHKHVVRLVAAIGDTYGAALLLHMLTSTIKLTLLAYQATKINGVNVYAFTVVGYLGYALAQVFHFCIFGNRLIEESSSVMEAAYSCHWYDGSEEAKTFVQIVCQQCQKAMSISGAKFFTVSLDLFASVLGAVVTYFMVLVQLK
The experiment in a line: Droplet interface bilayer ion channel recording, Or71a/Orco. Particulars: DIB, 10 μM ligand, holding potential 0 mV and −100 mV. Format: biochemical. As for the experimental part:
Bilayers were formed between two droplets formed within a PMMA chamber filled with 1 mg/ml DPhPC in undecane and AR20 silicone oil (1:1 ratio). The first step in this process was to deposit a 50 nl droplet onto the stationary silver electrode positioned at the base of the well; this droplet consisted of an aqueous solution containing 300 mM NaCl, 10 mM HEPES (pH 7.4), containing the odorant receptor proteins in proteoliposomes (at a 1:20 dilution from the proteoliposome preparation), […] The second droplet was mounted onto a second silver electrode which was held in the oil and lipid mixture using a YOU-3 manipulator (Narishige, Japan). […] Once the droplets were in contact a bilayer formed spontaneously within 1 minute (as determined by visual assessment and an increase in the bilayer capacitance as measured with a capacitance voltage protocol using the Pico2 amplifier). Insertion of an active channel was determined by a change in current while clamping the voltage at 50 mV. […]
Currents were recorded with a Pico2 or an eONE-HS amplifier (Tecella, USA and Elements, Italy, respectively) with built-in digitizers, operating in gap-free acquisition mode at a sampling frequency of 20 kHz, and using a 0.8 or 1.5 kHz low pass filter. […]
Data were analysed using ANA (Dr Pusch, Genoa), EDR (Elements, Italy) and WinWCP (Dr Dempster, University of Strathclyde). […]

The subject of another experiment is BmOR3/Orco. Particulars: ref 14; * estimated visually from graph; cited from earlier work.
Another experiment has as its system AgOr48/Orco. Particulars: cited from earlier work.
The subject of another experiment is AgOr65/Orco. Particulars: cited from earlier work.
A further experiment relates to DiOR1/Orco. Particulars: ref 48; * estimated visually from graph; cited from earlier work.
The test system of a further experiment is OscaOR1/Orco. Particulars: ref 47; * estimated visually from graph; cited from earlier work.
The subject of another experiment is PxOR1/Orco. The settings on record: ref 14; * estimated visually from graph; cited from earlier work.
In another experiment the test system is MsiOR1/Orco. The settings on record: ref 48; * estimated visually from graph; cited from earlier work.
The next experiment deals with T2, DOr85b/Orco (Drosophila melanogaster, UniProt Q9VHQ6).
T2 construct: host or cells: Xenopus oocytes
T2 sequence (Q9VHQ6 1-389): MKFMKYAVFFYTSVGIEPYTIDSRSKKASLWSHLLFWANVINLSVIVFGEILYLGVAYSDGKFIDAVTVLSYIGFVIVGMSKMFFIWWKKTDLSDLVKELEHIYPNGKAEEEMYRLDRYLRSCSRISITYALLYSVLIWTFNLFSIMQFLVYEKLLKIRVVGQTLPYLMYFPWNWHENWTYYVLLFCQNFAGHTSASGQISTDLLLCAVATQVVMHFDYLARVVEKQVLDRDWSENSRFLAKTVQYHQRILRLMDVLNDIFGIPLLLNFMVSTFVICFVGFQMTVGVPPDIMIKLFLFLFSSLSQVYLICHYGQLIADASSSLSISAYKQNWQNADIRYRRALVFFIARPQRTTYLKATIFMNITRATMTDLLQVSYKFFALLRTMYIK
T2 sequence (Q9VNB5 1-486 partner): T1 sequence (Q9VNB5 1-486 partner)
Particulars: cited from earlier work.

The test system of a further experiment is ECB (Z) OR3/Orco. The settings on record: cited from earlier work.
The subject of a further experiment is BmOR1/Orco. Particulars: ref 14; * estimated visually from graph; cited from earlier work.
The target in a further experiment is T3, Or35a (Drosophila melanogaster, UniProt Q9V3Q2).
T3 construct: his-tag; made in house; host or cells: baculovirus-infected Sf9 cells
T3 sequence (Q9V3Q2 1-409): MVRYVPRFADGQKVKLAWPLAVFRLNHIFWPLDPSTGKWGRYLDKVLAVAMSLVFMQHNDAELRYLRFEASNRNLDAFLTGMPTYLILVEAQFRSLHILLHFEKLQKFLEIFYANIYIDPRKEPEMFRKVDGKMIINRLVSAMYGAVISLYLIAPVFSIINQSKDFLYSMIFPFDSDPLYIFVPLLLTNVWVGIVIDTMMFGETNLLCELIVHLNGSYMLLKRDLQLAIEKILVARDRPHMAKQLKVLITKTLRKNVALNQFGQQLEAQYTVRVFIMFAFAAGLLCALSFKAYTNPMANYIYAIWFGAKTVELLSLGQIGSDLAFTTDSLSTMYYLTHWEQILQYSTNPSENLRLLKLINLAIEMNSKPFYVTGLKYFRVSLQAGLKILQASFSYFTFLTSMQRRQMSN
The experiment in a line: EIS sensor, Or35a liposomes on gold electrode. Format: biochemical. As for the experimental part: (§1) PBS (pH=7.4) was used as an electrolyte to conduct electrochemical measurements. PBS buffer was degassed for about 30 minutes prior to electrochemical measurements. Odorant solutions of concentration ranging from 1 aM to 1 μM were prepared by sequential dilution in PBS solution containing 1% DMSO. OR immobilized electrodes were incubated in relevant odorant solution for ˜30 minutes each and washed gently with PBS before EIS measurements.
(§2) EIS measurements were done in a 3 electrode cell containing Ag/AgCl (3 M NaCl, 0.209 V vs. SHE) reference electrode, coiled platinum wire as a counter electrode and the gold disk as a working electrode at a fixed voltage of −0.7 using PalmSens potentiostat. Degassed PBS was used as an electrolyte.
(§3) EIS measurements were performed on gold electrodes functionalised with OrX liposomes (either Or10a or Or22a), OrX/Orco liposomes, or empty liposomes prior to and after target ligand or control ligand incubation with increasing concentrations (1 aM to 100 μM). Dose response curves were obtained by defining sensor response as −(ΔRp/R^op) versus log[C(Ligand)]. FIG. 4a presents the EIS response in terms of Nyquist plot for the Or10a liposome functionalized sensors when exposed to a solution containing one of the known target ligands of Or10a, methyl salicylate, at various concentrations. […] The dose response curve (FIG. 4b) was obtained by plotting the change in polarization resistance −(ΔRp/R^op) versus log[conc(Ligand)], as the sensor response. Here, Rp is the polarization resistance after Or10a liposome-target interaction and R^op is the polarization resistance before Or10a liposome-target interaction.
(§4) Prior to use, 1 mg liposomes (500 μl at 2 mg/ml) were defrosted on ice and then destabilized by incubating with 0.2% CHAPS for 15 min at room temperature. […] All Or35a/Orco integrated liposomes samples were analysed by Western blot before being aliquoted and stored at −80° C. Integration of Or35a/Orco into liposomes was assessed by density gradient ultracentrifugation (DGU) using Accudenz (Accurate Chemical & Scientific Corporation, USA). […]

The target of a further experiment is T4, Or35a/Orco (Drosophila melanogaster, UniProt Q9V3Q2).
T4 construct: his-tag; made in house; host or cells: baculovirus-infected Sf9 cells
T4 sequence (Q9V3Q2 1-409): T3 sequence (Q9V3Q2 1-409)
T4 sequence (Q9VNB5 1-486 partner): T1 sequence (Q9VNB5 1-486 partner)
The experiment in a line: EIS sensor, Or35a/Orco liposomes on gold electrode. Format: biochemical. On the procedure:
as §1
EIS measurements were done in a 3 electrode cell containing Ag/AgCl (3 M NaCl, 0.209 V vs. SHE) reference electrode, coiled platinum wire as a counter electrode and the gold disk as a working electrode at a fixed voltage of −0.7 using PalmSens potentiostat. Degassed PBS was used as an electrolyte. […]
as §4

A short description of experiment [1]: EIS sensor, empty liposomes (specificity control). Particulars: empty liposomes without receptor. Format: biochemical. As for the experimental part: PBS solution was prepared by immersing one tablet of PBS in 200 ml of milli-Q water (according to manufacturers instructions) and filtered using 0.2-μm syringe filter. The pH of the prepared buffer solution was measured with a pH meter. OrX liposomes or OrX/Orco liposomes were diluted 100 fold in PBS buffer solution (pH=7.4) and the COOH-activated electrodes were incubated in that buffer solution at room temperature for one hour. Then, the electrodes were washed extensively with PBS buffer solution to wash out any unbound liposomes.
as §1, §2
as §3, with “Here, Rp is the polarization resistance after Or10a liposome-target interaction and R^op is the polarization resistance before Or10a liposome-target interaction.” left out

Setting [2] is: EIS dose response, ligand 1 aM to 100 μM.

SMILES strings stand for the structures. pEC50: −log10 of the molar value.

The pEC50 is the negative decadic logarithm of the EC50, by convention in mol/L.

For the molecule `CCc1ccc(OC)c(O)c1` [4-ethyl guaiacol], at Or71a/Orco, the ion channel activity entry is listed as “active ligand gated ion channel”. In the case of `CCC/C=C\C=C\CCCCCCCCC=O` [Bonnbykal], the Sensitivity limit in the experiment with BmOR3/Orco is 10^−8-10^−6 M*. Turning to `CCCCCCCCC1CCC(=O)O1` (stereo not shown) [g-dodecalactone], the “Ec50 (given as Log)” value with AgOr48/Orco (log value) was “Log = −7.01”. In the experiment on AgOr48/Orco (ref 45, * estimated visually from graph), the “Sensitivity limit (given as Log)” value is reported as “Log = −8*”. As to `C=CCc1ccc(O)c(OC)c1` [eugenol], the “Ec50 (given as Log)” value with AgOr65/Orco (log value) is “Log = −6.54”. In addition, in the experiment on AgOr65/Orco (ref 43, * estimated visually from graph), the “Sensitivity limit (given as Log)” value is recorded as “Log = −7*”.

For `CCCC/C=C/CCCCCCCCCC=O` [Ell-16:Ald], the Sensitivity limit with DiOR1/Orco is on record as 10^−7 M*. Regarding `CC/C=C/CCCCCCCCCCO` [E11-14:OH], in the experiment on OscaOR1/Orco, the Sensitivity limit is 10^−7 M*.

Take `CCCC/C=C\CCCCCCCCCC=O` [Z11-16:Ald]: the Sensitivity limit in the experiment with PxOR1/Orco was 10^−8-10^−6 M*. Consider `CCCC/C=C\CCCCCCCCCCOC(C)=O` [Z11-16:Ac], for which the Sensitivity limit with MsiOR1/Orco was 10^−7 M*. Take `CCCCCC(C)=O` [2-heptanone]: the negative logarithm of the EC50 (pEC50) on DOr85b/Orco was 4.34. At DOr85b/Orco (ref 14, * estimated visually from graph), the Sensitivity limit is recorded as 10^−8-10^−6 M*. As for `CC/C=C/CCCCCCCCCCOC(C)=O` [E11 pheromone], the Sensitivity limit with ECB (Z) OR3/Orco is 10^−9 M. For `CCC/C=C\C=C\CCCCCCCCCO` [Bonnbykol], the Sensitivity limit in the experiment on BmOR1/Orco is 10^−8-10^−6 M*. Regarding `CCC/C=C/C=O` [E2-hexenal], the “limit of detection (LOD)” value on Or35a (setting [2]) is reported as 10 fM. Further, the “Detection Range” value at Or35a (Table 3) is recorded as 10^−14 to 10^−6 M; at Or35a/Orco (Table 3) it was 10^−16-10^−6 M. The same molecule returned a limit of detection at Or35a/Orco (setting [2]) of 0.1 fM. In experiment [1], the “sensor response to ligand” value is on record as “negligible responses”.

The values are drawn from patent publication US20210255184A1, “Biosensor Device and Methods” (The New Zealand Institute for Plant and Food Research …, priority 2018, published 2021).
